According to US20090156598A1, “Imidazolopyrimidine modulators of TRPV1” (priority 2007, published 2009):

Key:
rat TRPV1 = target: T1, rat TRPV1 (Rattus norvegicus, UniProt O35433); assay: Functional assay: block of capsaicin-induced Ca2+ influx, rat assay (FLIPR, rTRPV1/HEK293); format: cell-based; details: rTRPV1/HEK293 cells, capsaicin challenge, mean; > value = solubility limit in assay medium
T1 construct: expressed in transfected cells; host or cells: HEK293 (rTRPV1/HEK293), geneticin selection
T1 sequence (O35433 whole entry): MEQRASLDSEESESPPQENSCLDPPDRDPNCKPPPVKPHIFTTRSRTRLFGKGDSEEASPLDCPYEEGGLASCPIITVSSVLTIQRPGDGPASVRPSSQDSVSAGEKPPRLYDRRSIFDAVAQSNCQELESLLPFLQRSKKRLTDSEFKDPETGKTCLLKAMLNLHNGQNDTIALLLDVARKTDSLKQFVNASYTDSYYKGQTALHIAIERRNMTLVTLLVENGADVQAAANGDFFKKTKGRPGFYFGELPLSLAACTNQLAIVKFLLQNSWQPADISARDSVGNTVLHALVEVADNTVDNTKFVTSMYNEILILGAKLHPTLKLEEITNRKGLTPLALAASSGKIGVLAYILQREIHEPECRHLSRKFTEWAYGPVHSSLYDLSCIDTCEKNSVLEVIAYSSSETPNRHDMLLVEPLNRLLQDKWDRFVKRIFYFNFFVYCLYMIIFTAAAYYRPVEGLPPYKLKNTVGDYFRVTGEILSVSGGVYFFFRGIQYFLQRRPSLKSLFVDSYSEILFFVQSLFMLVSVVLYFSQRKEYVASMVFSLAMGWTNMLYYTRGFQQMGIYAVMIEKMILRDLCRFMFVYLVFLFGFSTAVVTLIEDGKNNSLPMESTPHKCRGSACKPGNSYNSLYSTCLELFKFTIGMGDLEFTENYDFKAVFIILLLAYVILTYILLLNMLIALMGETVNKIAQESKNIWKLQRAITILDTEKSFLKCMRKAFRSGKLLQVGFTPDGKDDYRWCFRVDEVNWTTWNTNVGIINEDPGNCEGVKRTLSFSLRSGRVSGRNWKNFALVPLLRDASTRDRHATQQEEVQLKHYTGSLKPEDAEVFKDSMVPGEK
Description: (§1) Functional assay: block of capsaicin-induced Ca^2+ influx
(§2) HEK293 cells were transfected with human TRPV1 cloned in pcDNA3.1zeo(+) using the Effectene non-liposomal lipid based transfection kit (Qiagen) (hTRPV1/HEK293). hTRPV1/HEK293 cells were routinely grown as monolayers under selection in zeocin (200 μg/mL; Invitrogen) in Dulbecco's Modified Eagle Medium (DMEM, Gibco BRL) supplemented with 10% fetal bovine serum, and penicillin/streptomycin (50 units/mL) in 5% CO2 at 37° C. Cells were passaged frequently, every 3-5 days, to avoid overgrowth, depletion of essential medium components, or acidic medium exposure. Cells were passaged using a brief wash in 0.05% trypsin with 1 mM EDTA, followed by dissociation in divalent-free phosphate-buffered saline (Hyclone #SH30028.02). Dissociated cells were seeded onto poly-D-lysine coated black-walled 96-well plates (Biocoat; Becton Dickinson #354640) at about 40,000 cells per well and grown for approximately 1 day in culture medium to near confluency. The assay buffer was composed of 130 mM NaCl, 2 mM KCl, 2 mM MgCl2, 10 mM HEPES, 5 mM glucose, and either 2 mM or 20 μM CaCl2. On the day of the experiment, the culture medium was replaced with 2 mM calcium assay buffer using an automated plate washer (EL×405; Biotek, VT). The cells were incubated in 100 μL/well Fluo-3/AM (2 μM; TEFLabs #0116) with Pluronic F127 (100 μg/mL; Sigma #P2443) for 1 h at rt in the dark. After loading the cells, the dye solution was replaced with 50 μL/well of 20 μM calcium assay buffer using the EL×405 plate washer. Test compounds (50 μL/well) were added to the plate and incubated for 30 min. Intracellular Ca^2+ levels were subsequently assayed using a Fluorometric Imaging Plate Reader (FLIPR™ instrument, Molecular Devices, CA) to simultaneously monitor Fluo-3 fluorescence in all wells (λexcitation=488 nm, λemission=540 nm) during challenge with agonist (capsaicin). The IC50 values were determined. Cells were challenged with 150 nM capsaicin and the fluorescence counts were captured following agonist addition at a sampling rate of 0.33 Hz. The contents of the wells were mixed 3 times (40 μL mix volume) immediately after the additions were made. Concentration-dependence of block was determined by exposing each well of cells in duplicate rows of a 96-well plate to a serial dilution of test compound. The concentration series usually started at 10 μM with a three-fold serial decrement in concentration. The magnitude of the capsaicin response was determined by measuring the change in fluo3 fluorescence before and 100 seconds after the addition of the agonist. Data were analyzed using a non-linear regression program (Origin; OriginLab, MA).
This assay was performed similarly to the human assay described above, but using HEK293 cells transfected with rat TRPV1 (rTRPV1/HEK293).
(§3) IC50 values shown are the average (mean) of the results obtained. Where activity is shown as greater than (>) a particular value, the value is the solubility limit of the compound in the assay medium.

human TRPV1 = target: T2, human TRPV1 (Homo sapiens, UniProt Q8NER1); assay: Functional assay: block of capsaicin-induced Ca2+ influx, human assay (FLIPR, hTRPV1/HEK293); format: cell-based; details: hTRPV1/HEK293 cells, 150 nM capsaicin challenge, mean; > value = solubility limit in assay medium
T2 construct: expressed in transfected cells; host or cells: HEK293 (hTRPV1/HEK293), zeocin selection
T2 sequence (Q8NER1 whole entry): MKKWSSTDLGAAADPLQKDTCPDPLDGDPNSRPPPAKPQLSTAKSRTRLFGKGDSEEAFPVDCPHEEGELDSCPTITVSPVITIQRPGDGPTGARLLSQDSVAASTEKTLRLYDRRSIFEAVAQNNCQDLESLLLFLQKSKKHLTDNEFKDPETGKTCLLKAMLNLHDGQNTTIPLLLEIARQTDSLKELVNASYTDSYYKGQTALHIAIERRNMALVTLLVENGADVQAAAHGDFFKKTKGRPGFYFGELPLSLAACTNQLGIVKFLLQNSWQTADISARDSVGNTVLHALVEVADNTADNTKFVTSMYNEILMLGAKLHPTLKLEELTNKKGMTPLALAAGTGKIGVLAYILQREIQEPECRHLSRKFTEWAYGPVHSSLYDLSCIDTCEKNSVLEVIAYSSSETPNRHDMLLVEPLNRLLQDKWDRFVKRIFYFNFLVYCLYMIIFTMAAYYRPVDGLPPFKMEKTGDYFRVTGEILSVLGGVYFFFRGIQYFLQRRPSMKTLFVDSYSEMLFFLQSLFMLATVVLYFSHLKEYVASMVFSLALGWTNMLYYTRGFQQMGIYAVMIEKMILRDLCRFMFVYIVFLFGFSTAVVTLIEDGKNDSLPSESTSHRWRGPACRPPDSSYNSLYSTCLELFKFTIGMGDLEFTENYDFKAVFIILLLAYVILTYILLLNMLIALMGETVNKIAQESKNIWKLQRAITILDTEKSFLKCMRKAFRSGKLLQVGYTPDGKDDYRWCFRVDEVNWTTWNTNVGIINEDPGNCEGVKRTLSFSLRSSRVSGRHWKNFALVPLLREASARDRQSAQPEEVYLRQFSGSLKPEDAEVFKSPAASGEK
Description: as §1, §2, §3

SMILES	IC50 (rat TRPV1)	IC50 (human TRPV1)
CC(C)(C)c1ccc(Nc2ncnc3[nH]c(Nc4c(Cl)cccc4Cl)nc23)cc1 [Example 3, N^6-(4-tert-Butyl-phenyl)-N^8-(2,6-dichloro-phenyl)-9H-purine-6,8-diamine]	0.15 nM	2.3 nM
Cc1nc(Nc2ccc(C(F)(F)F)cc2)c2nc(Nc3c(Cl)cccc3Cl)[nH]c2n1 [Example 6, N^8-(2,6-Dichloro-phenyl)-2-methyl-N^6-(4-trifluoromethyl-phenyl)-9H-purine-6,8-diamine]	3 nM	29 nM
Cn1c(Nc2c(Cl)cccc2Cl)nc2c(Nc3ccc(C(F)(F)F)cc3)ncnc21 [Example 10, N^8-(2,6-Dichloro-phenyl)-9-methyl-N^6-(4-trifluoromethyl-phenyl)-9H-purine-6,8-diamine]	1130 nM	1460 nM
CS(=O)(=O)c1ccc(Nc2ncnc3[nH]c(Nc4c(Cl)cccc4Cl)nc23)cc1 [Example 5, N^8-(2,6-Dichloro-phenyl)-N^6-(4-methanesulfonyl-phenyl)-9H-purine-6,8-diamine]	18 nM	170 nM
Clc1cccc(Cl)c1Nc1nc2c(Nc3ccccc3)ncnc2[nH]1 [Example 4, N^8-(2,6-Dichloro-phenyl)-N^6-phenyl-9H-purine-6,8-diamine]	1750 nM	3390 nM

Results, then the molecule that gave them:

IC50 (rat TRPV1)	IC50 (human TRPV1)	SMILES
1010 nM	3070 nM	FC(F)(F)c1ccc(Nc2ncnc3[nH]c(Nc4ccccc4C(F)(F)F)nc23)cc1 [Example 8, N^6-(4-Trifluoromethyl-phenyl)-N^8-(2-trifluoromethyl-phenyl)-9H-purine-6,8-diamine]
4.9 nM	17 nM	FC(F)(F)c1ccc(Nc2ncnc3[nH]c(Nc4c(Cl)cccc4Cl)nc23)cc1 [Example 1, N^8-(2,6-Dichloro-phenyl)-N^6-(4-trifluoromethyl-phenyl)-9H-purine-6,8-diamine]
> 6670 nM	> 6670 nM	FC(F)(F)c1ccc(Nc2ncnc3[nH]c(Nc4ccccc4Cl)nc23)cc1 [Example 7, N^8-(2-Chloro-phenyl)-N^6-(4-trifluoromethyl-phenyl)-9H-purine-6,8-diamine]
1050 nM	2300 nM	FC(F)(F)c1ccc(Nc2ncnc3[nH]c(Nc4ccccc4C(F)(F)F)nc23)cn1 [Example 9, N^8-(2-Trifluoromethyl-phenyl)-N^6-(6-trifluoromethyl-pyridin-3-yl)-9H-purine-6,8-diamine]
19 nM	–	FC(F)(F)c1ccc(Nc2ncnc3[nH]c(Nc4c(Cl)cccc4Cl)nc23)cn1 [Example 2, N^8-(2,6-Dichloro-phenyl)-N^6-(6-trifluoromethyl-pyridin-3-yl)-9H-purine-6,8-diamine]
